# Assay results from publication PMC12864978, “Covalent modification of a glutamic acid inspired by HaloTag technology” (Nature Communications, 2026).
# “Also recorded” adds a separate entry of the source. Read-outs that look alike come from different tables or passages of the source.
# Tests used:
# [1] = target: T1, PDEδ (Homo sapiens, UniProt O43924); assay: Competitive fluorescence polarisation assay (FA probe displacement); type: binding; design: His tag; made in house; host or cells: Escherichia coli Rosetta (BL21DE3), pET plasmids; conditions: PDEδ 40 nM, FA probe 24 nM, room temperature overnight
# [2] = target: T1, PDEδ; assay: Covalent modification of PDEδ by MALDI mass spectrometry; type: binding; design: His tag; made in house; host or cells: Escherichia coli Rosetta (BL21DE3), pET plasmids; conditions: PDEδ 20 µM, compound 60 µM, HEPES pH 7.5, 37 °C; mean ± s.e.m.
# Experimental: The solution was briefly centrifuged before a sample was taken at the designated time for analysis by MALDI. […] Mass spectra were obtained over the m/z range 15,000–25,000 using a Bruker UltrafleXtreme XIAL DI-TOF/TOF mass spectrometer. Percentages of covalent adduct formation were estimated by the relative intensity of the respective peaks in MALDI spectra.
# 1. Supplementary Figures and Tables
# PDEδ (20 µM) was incubated with compounds (60 µM) in HEPES
# Percentages of covalent adduct formation were estimated by the relative intensity of the respective peaks in MALDI spectra. Data are presented as mean ± s.e.m.
# Apparent pseudo -first order kobs was estimated by percentages of covalent adduct formation at 2 hours by MALDI. Plot of kobs (h-1) against concentration (µM) was fitted by GraphPad […]
# Prism Michaelis-Menten model and separate values for kinact and KI were obtained to calculate apparent […]
# PDEδ (20 µM) was incubated with
# Data are presented as mean ± s.e.m.
# HEPES buffer, n = 3 for the rest). One-way ANOVA with matched time-points, with Geisser-
# [3] = GSH adduct formation (stability in the presence of GSH); type: physicochemical; conditions: phosphate buffer with 10 mM GSH; 10-fold excess of GSH at 10 mM, phosphate buffer pH 7.4, 37 °C; read-out: half-life for GSH adduct formation t1/2 GSH (converted)
# Experimental: (§1) Compound (1 mM) was incubated with the respective buffers (HEPES 20 mM, 150 mM NaCl, pH = 7.5; 0.2 M sodium acetate buffer, pH = 5.6; 0.2 M sodium citrate buffer, pH = 6.2; 0.2 M potassium phosphate buffer, pH = 7.4, 1 mM EDTA, with or without 10 mM GSH), with 1% DMSO adjusted for all conditions. […] Per cent (%) compound remaining in the solution was estimated by the ratio of areas under the curve, and data plotted were fitted to pseudo-1st kinetics in the calculation of rate constants (k) and half-lives (t1/2), where k is the negative slope of a linear regression of In (% compound remaining) over time. Half-lives (t1/2) in respective buffers and half-lives for GSH adduct formation (t1/2 GSH) were calculated with the following equations:1 t1/2=In2/k 2 kGSH=ktotalconsumptioninphosphatebufferinpresenceofGSH−k(phosphatebufferinabsenceofGSH) 3 t1/2GSH=In2/k(GSH) […]
# (§2) a, Percentage (%) of compound remaining was monitored by HPLC-MS and data was fitted to pseudo-first kinetics in calculation of rate constants (k) and half-lives (t1/2) in respective buffers, where k is the negative slope of a linear regression of In (% compound remaining) over time and t 1/2 = In2/k. Initial […]
# (§3) Initial GSH concentration =
# [4] = target: T1, PDEδ; assay: Mass spectrometry analysis of PDEδ adducts after Glu-C digestion; type: binding; design: His tag; made in house; host or cells: Escherichia coli Rosetta (BL21DE3), pET plasmids; conditions: LC-MS/MS, 10:1 compound to protein
# Experimental: For each replicate, 1.5 µg covalent adduct of PDEδ sample in PBS buffer was denatured, reduced, alkylated and digested by Glu-C and desalted, together with a negative control of unbound vehicle-treated PDEδ sample prior to mass spectrometry analysis. […] The final mixture containing 6.5 M guanidine hydrochloride was heated at 95 °C for 15 min. Subsequently, after cooling, 0.5 µl of a 50 mM dithiothreitol (DTT, cas 3483-12-3, Gerbu Biotechnik, #1008-100 g) solution was added. […] . Samples were incubated at 37 °C overnight with shaking at 400 rpm, protected from light. […] Desalting was carried out with stage tips with C18 extraction discs (Empore^TM high performance extraction discs, 47 mm, 3 M Bioanalytical Technologies #2215). Each stage tip, which consists of two stacked layers of C18 discs, was activated with methanol (100 µl), washed once with buffer B (100 µl, 0.1% formic acid, 80% acetonitrile), and twice with buffer A (100 µl/time, 0.1% formic acid). After sample loading and washing with buffer A once, the desalted sample was eluted with buffer B (20 µl/sample) and centrifuged at 500×g at room temperature for 5 min. Eluted samples were then dried in a SpeedVac at 30 °C.
# Data evaluation was performed using MaxQuant software (v.2.2.0.0)[52]. […] Cleavages by Glu-C were analysed based on the enzyme that was used for digestion. […]
# [5] = target: T1, PDEδ; assay: Differential scanning fluorimetry (NanoDSF); type: binding; design: His tag; made in house; host or cells: Escherichia coli Rosetta (BL21DE3), pET plasmids; conditions: PDEδ 20 µM, compound 60 µM; mean ± s.d., Fig. 2e; read-out: melting temperature shift ΔTm (NanoDSF)
# Experimental: Afterwards, a sample of the solution was cooled down to room temperature and was loaded onto a capillary, followed by the measurement of fluorescence intensities at 350 nm and 330 nm from 20 °C up to 90 °C (with a rate of increment of 1 °C/min) using the Prometheus Panta device (NanoTemper® Technologies, DE).
# [6] = Compound stability in aqueous buffers; type: physicochemical
# Experimental: as §1, §2, §3
# [7] = tested on: panel of human cell lines; assay: Cytotoxicity screening in a panel of human cell lines; type: cell-based; conditions: concentrations up to 25 µM
# Experimental: (§4) Real-time cell analysis (RTCA) was conducted using an Incucyte S3 live-cell analysis system (Sartorius AG, Germany). Adherent cell lines were seeded at 5 × 10³ cells per well in 96-well plates containing 100 µl of culture medium and incubated overnight at 37 °C with 5% CO₂. Following attachment overnight, the medium was replaced with fresh medium containing test compounds, with all conditions adjusted to contain 0.5% DMSO. […] Phase-contrast images (2 images per well) were automatically captured at 2-h intervals until control wells (DMSO-treated) reached full confluency. Cell growth was quantified using the instrument’s integrated Basic Analyser module by applying a confluence mask to calculate the percentage of phase area confluence. For dose-response assessment, confluence values at 72 h post-treatment were normalised to the DMSO control and analysed using GraphPad Prism 9.5.1 (GraphPad Software, USA). Dose-response curves were generated and fitted via four-parameter variable slope nonlinear regression to determine cellular IC₅₀ values.
# representative of biological replicates n = 3.
# comet images for each condition were shown.
# time live-cell imaging by Incucyte.
# Source data are provided as […]
# [8] = tested on: NCI-H358 cells; assay: Real-time cell analysis (Incucyte) of proliferation; type: cell-based, human; conditions: read-out: cellular IC50
# Experimental: as §4, with “Adherent cell lines were seeded at 5 × 10³ cells per well in 96-well plates containing 100 µl of culture medium and incubated overnight at 37 °C with 5% CO₂.” left out, “For dose-response assessment, confluence values at 72 h post-treatment were normalised to the DMSO control and analysed using GraphPad Prism 9.5.1 (GraphPad Software, USA).” left out
# [9] = tested on: PA-TU-8902 cells; assay: as above; type: cell-based, human
# Experimental: as §4, with “Adherent cell lines were seeded at 5 × 10³ cells per well in 96-well plates containing 100 µl of culture medium and incubated overnight at 37 °C with 5% CO₂.” left out, “For dose-response assessment, confluence values at 72 h post-treatment were normalised to the DMSO control and analysed using GraphPad Prism 9.5.1 (GraphPad Software, USA).” left out
# [10] = tested on: MIA PaCa-2 cells; assay: as above; type: cell-based, human
# Experimental: as §4, with “Adherent cell lines were seeded at 5 × 10³ cells per well in 96-well plates containing 100 µl of culture medium and incubated overnight at 37 °C with 5% CO₂.” left out, “For dose-response assessment, confluence values at 72 h post-treatment were normalised to the DMSO control and analysed using GraphPad Prism 9.5.1 (GraphPad Software, USA).” left out
# [11] = tested on: SW480 cells; assay: as above; type: cell-based, human
# Experimental: as §4, with “Adherent cell lines were seeded at 5 × 10³ cells per well in 96-well plates containing 100 µl of culture medium and incubated overnight at 37 °C with 5% CO₂.” left out, “For dose-response assessment, confluence values at 72 h post-treatment were normalised to the DMSO control and analysed using GraphPad Prism 9.5.1 (GraphPad Software, USA).” left out
# [12] = tested on: BxPC-3 cells; assay: as above; type: cell-based, human
# Experimental: as §4, with “Adherent cell lines were seeded at 5 × 10³ cells per well in 96-well plates containing 100 µl of culture medium and incubated overnight at 37 °C with 5% CO₂.” left out, “For dose-response assessment, confluence values at 72 h post-treatment were normalised to the DMSO control and analysed using GraphPad Prism 9.5.1 (GraphPad Software, USA).” left out
# [13] = target: UNC119B (Homo sapiens, UniProt A6NIH7); assay: Mass spectrometry analysis of UNC119B adducts after Lys-C digestion; conditions: 10 eq., overnight at 37 °C; including binding pocket p.E174
# [14] = tested on: Rheb localisation in PA-TU-8902 cells; assay: Immunofluorescence staining of Rheb; type: cell-based, human; conditions: 5 µM, overnight
# Experimental: Immunostaining: compound-treated PA-TU-8902 cells were washed once with cold PBS, fixed with 3.7% paraformaldehyde in PBS by incubation at room temperature for 10 min and permeabilised with 0.3% Triton X-100 in PBS by incubation at room temperature for 15 min. […] After washing with PBS-T three times, PBS-incubated cells were imaged with Observer Z1 (Carl Zeiss, Germany) with a 63× oil objective.
# [15] = target: PDEδ; conditions: previously developed PDEδ inhibitor chemotypes, Fig. 1b; read-out: KD (reported binding affinity); cited from earlier work
# [16] = Homo sapiens, 72 h, read-out: cellular IC50
structure (smiles),measurement,setting,value
Cc1ccc(-n2nc3c(=O)n(CCCCS(=O)(=O)N(CCCCCCCBr)CC4CCNCC4)nc(C)c3c2C)cc1 [5e],IC50,[1],0.017 ± 0.0061 µM
same,% covalent modification at 24 h,[2],62 ± 10%
same,half-life at 1 mM,[3],180 days
same,site of covalent modification in PDEδ,[4],either at p.E88 or p.E89
same,ΔTm at 60 µM,[5],14.7 ± 1.2 °C
same,half-life at 1 mM,"[6]; HEPES buffer, pH 7.5, 37 °C, compound 1 mM, read-out: half-life t1/2 in HEPES buffer (converted)",85 h
same,half-life at 1 mM,"[6]; acetate buffer, pH 5.6, 37 °C, read-out: half-life t1/2 in acetate buffer (converted)",43 h
Cc1ccc(-n2nc3c(=O)n(CCCCS(=O)(=O)N(CCCCCBr)CC4CCNCC4)nc(C)c3c2C)cc1 [4b],% covalent modification at 24 h,[2],23 ± 3%
Cc1ccc(-n2nc3c(=O)n(CCCC(=O)N(CCCCl)CC4CCNCC4)nc(C)c3c2C)cc1 [3a],% covalent modification at 24 h,[2],not reactive enough to yield any detectable covalent adduct
Cc1ccc(-n2nc3c(=O)n(CCCC(=O)N(CCCBr)CC4CCNCC4)nc(C)c3c2C)cc1 [3c],% covalent modification at 24 h,[2],not reactive enough to yield any detectable covalent adduct
Cc1ccc(-n2nc3c(=O)n(CCCC(=O)N(CCCCCCl)CC4CCNCC4)nc(C)c3c2C)cc1 [3b],% covalent modification at 24 h,[2],not reactive enough to yield any detectable covalent adduct
Cc1ccc(-n2nc3c(=O)n(CCCCS(=O)(=O)N(CCc4cccc(CCCl)c4)CC4CCNCC4)nc(C)c3c2C)cc1 [6b],IC50,[1],0.0082 ± 0.004 µM
same,ΔTm at 60 µM,[5],11.1 ± 0.6 °C
same,general cytotoxicity,[7],not observed
same,IC50,"[8]; Homo sapiens, NCI-H358, 72 h, NCI-H358, 72 h",6.8 ± 1.9 µM
same,IC50,"[8]; NCI-H358, 72 h",6.3 ± 1.9 µM
same,IC50,"[9]; Homo sapiens, PaTu 8902, PA-TU-8902, 72 h, read-out: cellular IC50",12 ± 1 µM
same,IC50,"[10]; Homo sapiens, MIA PaCa-2, 72 h, read-out: cellular IC50",10.9 ± 1.9 µM
same,IC50,[11]; [16],> 50 µM
same,IC50,[12]; [16],> 26 µM
Cc1ccc(-n2nc3c(=O)n(CCCCS(=O)(=O)N(CCCCCCCCl)CC4CCNCC4)nc(C)c3c2C)cc1 [5h],IC50,[1],0.0137 ± 0.0034 µM
same,ΔTm at 60 µM,[5],11.3 ± 0.6 °C
CCOC(=O)N1CCC(Nc2c(NCCCBr)c(=O)c2=O)CC1 [compound 7],covalent modification of acid sites in UNC119B,[13],covalently modified
Cc1ccc(-n2nc3c(=O)n(CCCC(=O)N(CCCCCBr)CC4CCNCC4)nc(C)c3c2C)cc1 [3d],% covalent modification at 24 h,[2],11 ± 4%
"Cc1ccc(-n2nc3c(=O)n(CCCC(=O)NCC(C)c4ccccc4)nc(C)c3c2C)cc1 (centres unmarked) [Deltazinone 1, reference compound]",cellular Rheb distribution,[14],loss of inhibition for PDEδ-Rheb interaction
same,IC50,"[8]; Homo sapiens, NCI-H358, 72 h",0.14 ± 0.11 µM
same,% Growth rate of PA-TU-8902 cells,[9]; 25 µM,29%
same,% Growth rate of PA-TU-8902 cells,[9]; 50 µM,23%
same,% Growth rate of MIA PaCa-2 cells,[10]; 25 µM,96%
same,% Growth rate of MIA PaCa-2 cells,[10]; 50 µM,80%
same,growth inhibition,"[10]; MIA PaCa-2, doses up to 50 µM",little or no growth inhibition; also recorded: no anti-proliferative activity
same,growth inhibition,[11]; doses up to 50 µM,little or no growth inhibition
same,growth inhibition,[12]; doses up to 50 µM,little or no growth inhibition
Cc1ccc(-n2nc3c(=O)n(CCCC(=O)NCCCCCBr)nc(C)c3c2C)cc1 [2d],% covalent modification at 24 h,[2],8 ± 5%
Cc1c(Cl)cccc1NC(=O)CCCn1nc(C)c2c(C)n(-c3ccccc3)nc2c1=O [Deltazinone derivative],Kd,[15],0.005 ± 0.002 µM
